Values of other authors, collected in patent US7851459B2, “Methods for diluting water-stabilized antimicrobial organosilane compositions” (Vitec Speciality Chemicals Limited, priority 2007, dated 2010).

Details: mixture of organosilane and water

CCCCCCCCCCCCCCCCCC[N+](C)(C)CCC[Si](OC)(OC)OC.[Cl-] [3-(trimethoxysilyl)propyl-dimethyloctadecyl ammonium chloride]
time until mixture with water begins to lose effectiveness: four to eight
